# Laboratory results from US20130203110A1 (priority 2010, published 2013).
# Target: α7 subunit of the nicotinic Acetylcholine Receptor (nAchR) (Homo sapiens, UniProt P36544)
# Assay type: biochemical
# α7 subunit of the nicotinic Acetylcholine Receptor (nAchR), sequence (P36544 23-502 limits assumed): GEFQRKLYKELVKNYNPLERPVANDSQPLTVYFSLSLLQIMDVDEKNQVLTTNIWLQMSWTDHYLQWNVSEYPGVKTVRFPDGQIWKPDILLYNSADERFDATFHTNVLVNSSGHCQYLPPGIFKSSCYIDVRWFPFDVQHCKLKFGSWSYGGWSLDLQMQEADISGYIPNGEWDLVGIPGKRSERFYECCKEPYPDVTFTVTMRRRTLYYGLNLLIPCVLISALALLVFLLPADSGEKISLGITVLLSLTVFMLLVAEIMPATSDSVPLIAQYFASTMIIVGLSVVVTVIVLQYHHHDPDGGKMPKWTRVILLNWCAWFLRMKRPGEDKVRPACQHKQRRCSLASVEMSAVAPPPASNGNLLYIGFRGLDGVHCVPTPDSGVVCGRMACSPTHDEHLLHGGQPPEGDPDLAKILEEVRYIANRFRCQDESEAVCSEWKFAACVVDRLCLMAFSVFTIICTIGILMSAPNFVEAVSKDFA
Molecule,signal on activation of the nAchR sensor,carbamoylcholine-induced signal after incubation with inhibitor
"C[N+](C)(C)CCOC(N)=O.[Cl-] [carbamoylcholinechloride, Carbamoylcholine chloride]",results in a signal,–
α-Bungarotoxin [α-BTX],–,could not be generated the same way
